From paper PMC4418665, “Cyclization of the Urokinase Receptor-Derived Ser-Arg-Ser-Arg-Tyr Peptide Generates a Potent Inhibitor of Trans-Endothelial Migration of Monocytes” (PLoS ONE, 2015)
Peptide text beside a SMILES is read from it.

What was measured:
human primary monocytes = assay: Primary monocyte migration in Boyden chambers; assay type: cell-based; details: 10 nM peptide, 90 minutes
FPR1 = molecular target: T1, FPR1 (Homo sapiens, UniProt P21462); assay: Agonist-induced FPR1 internalization at 37°C, fluorescence microscopy, THP-1 cells; assay type: cell-based; parameters: host or cells: THP-1 human monocytic leukemia cells; details: excess (100 nM) unlabelled peptide 30 min at 37°C, then 10 nM FITC-fMLF 30 min at 37°C
T1 sequence (P21462 1-350): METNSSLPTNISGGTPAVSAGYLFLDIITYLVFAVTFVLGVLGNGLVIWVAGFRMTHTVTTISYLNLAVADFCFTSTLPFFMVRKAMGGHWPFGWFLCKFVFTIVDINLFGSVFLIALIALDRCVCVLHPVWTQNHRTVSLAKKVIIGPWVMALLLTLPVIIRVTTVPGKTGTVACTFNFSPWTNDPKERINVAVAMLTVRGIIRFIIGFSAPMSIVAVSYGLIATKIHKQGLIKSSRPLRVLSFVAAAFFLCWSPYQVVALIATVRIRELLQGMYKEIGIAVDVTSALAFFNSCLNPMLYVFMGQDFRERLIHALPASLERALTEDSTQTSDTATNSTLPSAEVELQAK
Description: Once documented that both SRSRY and [SRSRY] peptides compete with fMLF for binding to FPR1, we investigated the effect of [SRSRY] on the motility of monocytes. Preliminarily, we assessed whether [SRSRY] is a ligand of FPR1 on monocyte cell surface. […] (Fig 3A). When binding experiments were performed at 37°C, FPR1 appeared mainly localized within the cytoplasm, adjacent but outside the nucleus of THP-1 cells.
Fig 3 The peptide [SRSRY] binds to FPR1 on THP-1 cell surface. A. THP-1 cells (1.5 x10^6 cells/sample) were pre-incubated with diluents (None), 100 nM fMLF, 100 nM SRSRY or 100 nM [SRSRY] peptides for 60 minutes at 4°C, then exposed to 10 nM N-formyl-Nle-Leu-Phe-Nle-Tyr-Lys-fluorescein (FITC-fMLF) for additional 60 minutes at 4°C. Fluorimetric measurement of cell-associated fluorescence was assed using 485 nm excitation and 535 nm emission filters. Data are expressed as a percentage of the fluorescence associated to THP-1 cells exposed to FITC-fMLF alone (None = 100%) and represent a mean ± SD from triplicates. *Statistical significance (t-test) against None with p<0.001. B. THP-1 cells incubated with diluents (None), 100 nM fMLF, 100 nM SRSRY or 100 nM [SRSRY] peptides for 30 minutes at 37°C and exposed to 10 nM FITC-fMLF for additional 30 minutes at 37°C. Scale bar: 5 μm. Original magnifications: 630x. […]

internalization of fluorescent agonist in THP-1 cells (FPR1): dramatically reduced
Compound: N=C(N)NCCC[C@@H]1NC(=O)[C@H](CO)NC(=O)[C@H](Cc2ccc(O)cc2)NC(=O)[C@H](CCCNC(=N)N)NC(=O)[C@H](CO)NC1=O [[SRSRY], [Ser-Arg-Ser-Arg-Tyr]] (cyclo(RSRYS))
reduction of SRSRY-directed primary monocyte migration (human primary monocytes; 10 nM SRSRY): 49%
reduction of fMLF-directed primary monocyte migration (human primary monocytes; 10 nM fMLF): 50%
